Key:
[1] = target: Sodium-dependent dopamine transporter (Homo sapiens) (UniProt Q01959); conditions: Compound concentration 10.0 uM
[2] = target: cAMP and cAMP-inhibited cGMP 3',5'-cyclic phosphodiesterase 10A (Homo sapiens, UniProt Q9Y233); experiment: Biochemical assay (PDE10A)
[3] = target: 5-hydroxytryptamine receptor 3A (Homo sapiens) (UniProt P46098); conditions: Compound concentration 10.0 uM
[4] = target: T1, Muscarinic acetylcholine receptor M1 (Homo sapiens) (UniProt P11229); conditions: Compound concentration 10.0 uM
T1 sequence (whole entry): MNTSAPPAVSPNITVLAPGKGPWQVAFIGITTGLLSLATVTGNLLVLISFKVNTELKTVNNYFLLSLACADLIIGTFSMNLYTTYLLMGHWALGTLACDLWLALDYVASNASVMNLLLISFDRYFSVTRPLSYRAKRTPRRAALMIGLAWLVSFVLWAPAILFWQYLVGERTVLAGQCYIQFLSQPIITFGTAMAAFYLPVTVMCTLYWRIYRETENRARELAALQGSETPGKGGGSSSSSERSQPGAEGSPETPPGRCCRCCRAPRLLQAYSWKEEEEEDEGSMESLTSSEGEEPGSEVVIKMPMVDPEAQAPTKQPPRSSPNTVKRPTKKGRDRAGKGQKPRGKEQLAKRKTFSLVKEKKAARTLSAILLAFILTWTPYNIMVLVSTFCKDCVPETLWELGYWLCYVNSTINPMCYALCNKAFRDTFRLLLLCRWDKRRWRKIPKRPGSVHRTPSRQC

[5] = target: Phosphodiesterase 3 (Homo sapiens) (UniProt Q14432+Q13370); experiment: Inhibition of Phosphodiesterase PDE3 at compound concentration of 10.0 uM in the Eurofins-Panlabs enzyme assay (Eurofins_assay_152000); format: protein assay; parameters: substrate with concentration 1.01 uM [3H] cAMP + cAMP, incubation time 20 min, incubation temperature 25 C; conditions: Compound concentration 10.0 uM
[6] = target: Glutamate receptor 2 (Homo sapiens) (UniProt P42262); conditions: Rattus norvegicus; Compound concentration 10.0 uM
[7] = target: Melanin-concentrating hormone receptor 1 (Homo sapiens) (UniProt Q99705); experiment: Melanin-Concentrating Hormone MCH1 (SLC1) Eurofins-Panlabs radioligand binding assay; parameters: ligand concentration 0.05 nM; conditions: Compound concentration 10.0 uM
[8] = species: Rattus norvegicus; experiment: GABAA, Ro-15-1788, Hippocampus Eurofins-Panlabs radioligand binding assay; parameters: ligand concentration 1 nM; conditions: Compound concentration 10.0 uM
[9] = target: Tyrosine 3-monooxygenase (Homo sapiens) (UniProt P07101); experiment: Tyrosine Hydroxylase Eurofins-Panlabs enzyme assay; parameters: substrate with concentration; conditions: Rattus norvegicus; Compound concentration 10.0 uM
[10] = target: Neuropeptide Y receptor type 2 (Homo sapiens) (UniProt P49146); experiment: Inhibition of Neuropeptide Y Y2 at 10 µM in the Eurofins-Panlabs radioligand binding assay (Eurofins_assay_257110); conditions: Compound concentration 10.0 uM
[11] = target: Corticotropin-releasing factor receptor 1 (Homo sapiens) (UniProt P34998); experiment: Corticotropin Releasing Factor CRF1 Eurofins-Panlabs radioligand binding assay; conditions: Compound concentration 10.0 uM
[12] = target: Estrogen receptor (Homo sapiens) (UniProt P03372); conditions: Compound concentration 10.0 uM
[13] = target: Prostaglandin G/H synthase 2 (Homo sapiens) (UniProt P35354); experiment: Inhibition of Cyclooxygenase COX-2 at compound concentration of 10.0 uM in the Eurofins-Panlabs enzyme assay (Eurofins_assay_118010); parameters: substrate with concentration 0.3 uM Arachidonic acid, incubation time 15 min, incubation temperature 37 C; conditions: Compound concentration 10.0 uM
[14] = target: Rod cGMP-specific 3',5'-cyclic phosphodiesterase subunit alpha (Homo sapiens, UniProt P16499); experiment: Biochemical assay (PDE6A)
[15] = target: High affinity choline transporter 1 (Homo sapiens) (UniProt Q9GZV3); experiment: Transporter, Choline Eurofins-Panlabs radioligand binding assay; parameters: ligand concentration 0.75 nM; conditions: Rattus norvegicus; Compound concentration 10.0 uM
[16] = target: Glutamate receptor ionotropic, kainate (Rattus norvegicus) (UniProt P22756+Q01812+P42260+P42264+Q63273); experiment: Inhibition of Glutamate, Kainate at 10 µM in the Eurofins-Panlabs radioligand binding assay (Eurofins_assay_232700); conditions: Compound concentration 10.0 uM
[17] = target: Peroxisome proliferator-activated receptor alpha (Homo sapiens) (UniProt Q07869); experiment: PPARalpha Eurofins-Panlabs radioligand binding assay; conditions: Compound concentration 10.0 uM
[18] = target: Vasopressin V1a receptor (Homo sapiens) (UniProt P37288); conditions: Compound concentration 10.0 uM
[19] = target: T2, Alpha-2C adrenergic receptor (Homo sapiens) (UniProt P18825); experiment: Adrenergic alpha2C Eurofins-Panlabs radioligand binding assay; parameters: ligand concentration 1 nM, non-specific ligand with concentration 10 µM WB-4101, incubation time 60 min, incubation temperature 25 °C; conditions: Compound concentration 10.0 uM
T2 sequence (whole entry): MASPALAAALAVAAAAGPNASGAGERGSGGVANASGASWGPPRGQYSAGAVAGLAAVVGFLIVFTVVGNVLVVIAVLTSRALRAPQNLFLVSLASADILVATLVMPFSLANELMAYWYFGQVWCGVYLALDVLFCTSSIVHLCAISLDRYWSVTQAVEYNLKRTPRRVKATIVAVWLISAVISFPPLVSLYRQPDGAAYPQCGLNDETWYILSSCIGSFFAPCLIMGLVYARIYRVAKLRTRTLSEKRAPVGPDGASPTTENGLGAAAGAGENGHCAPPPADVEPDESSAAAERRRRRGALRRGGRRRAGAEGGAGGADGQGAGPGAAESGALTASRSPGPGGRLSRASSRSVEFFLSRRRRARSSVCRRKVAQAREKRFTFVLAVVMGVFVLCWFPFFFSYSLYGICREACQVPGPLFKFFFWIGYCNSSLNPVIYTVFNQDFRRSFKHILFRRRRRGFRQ

[20] = target: D(2) dopamine receptor (Homo sapiens) (UniProt P14416); conditions: Compound concentration 10.0 uM
[21] = target: Substance-P receptor (Homo sapiens) (UniProt P25103); experiment: Tachykinin NK1 Eurofins-Panlabs radioligand binding assay; conditions: Compound concentration 10.0 uM
[22] = target: Sodium-dependent dopamine transporter (Homo sapiens) (UniProt Q01959); conditions: Compound concentration 10.0 uM; remark: listed apart in the source
[23] = target: Substance-K receptor (Homo sapiens) (UniProt P21452); experiment: Inhibition of Tachykinin NK2 at 10 µM in the Eurofins-Panlabs radioligand binding assay (Eurofins_assay_255600); parameters: ligand concentration 0.5 nM; conditions: Compound concentration 10.0 uM
[24] = target: Cathepsin G (Homo sapiens) (UniProt P08311); experiment: Inhibition of Peptidase, CTSG (Cathepsin G) at 10 µM in the Eurofins-Panlabs enzyme assay (Eurofins_assay_112510); parameters: substrate with concentration; conditions: Compound concentration 10.0 uM

Sodium-dependent dopamine transporter (Homo sapiens), sequence (Q01959 whole entry): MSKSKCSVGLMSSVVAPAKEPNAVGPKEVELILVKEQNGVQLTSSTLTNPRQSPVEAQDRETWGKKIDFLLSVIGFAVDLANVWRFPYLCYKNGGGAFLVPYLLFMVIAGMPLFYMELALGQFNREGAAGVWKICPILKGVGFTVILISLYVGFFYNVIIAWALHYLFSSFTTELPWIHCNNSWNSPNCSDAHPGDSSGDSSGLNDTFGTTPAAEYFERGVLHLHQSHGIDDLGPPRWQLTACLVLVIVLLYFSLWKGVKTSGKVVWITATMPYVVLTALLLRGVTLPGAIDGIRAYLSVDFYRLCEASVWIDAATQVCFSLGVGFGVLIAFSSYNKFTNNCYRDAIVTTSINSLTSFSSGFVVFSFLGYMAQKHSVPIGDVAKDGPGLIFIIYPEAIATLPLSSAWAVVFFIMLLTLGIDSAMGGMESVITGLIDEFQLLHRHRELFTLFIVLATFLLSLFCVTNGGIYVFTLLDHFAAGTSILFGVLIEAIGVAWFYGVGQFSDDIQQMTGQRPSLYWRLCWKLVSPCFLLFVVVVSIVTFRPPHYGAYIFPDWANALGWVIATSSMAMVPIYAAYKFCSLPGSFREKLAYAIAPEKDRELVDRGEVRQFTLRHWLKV
Melanin-concentrating hormone receptor 1 (Homo sapiens), sequence (Q99705 whole entry): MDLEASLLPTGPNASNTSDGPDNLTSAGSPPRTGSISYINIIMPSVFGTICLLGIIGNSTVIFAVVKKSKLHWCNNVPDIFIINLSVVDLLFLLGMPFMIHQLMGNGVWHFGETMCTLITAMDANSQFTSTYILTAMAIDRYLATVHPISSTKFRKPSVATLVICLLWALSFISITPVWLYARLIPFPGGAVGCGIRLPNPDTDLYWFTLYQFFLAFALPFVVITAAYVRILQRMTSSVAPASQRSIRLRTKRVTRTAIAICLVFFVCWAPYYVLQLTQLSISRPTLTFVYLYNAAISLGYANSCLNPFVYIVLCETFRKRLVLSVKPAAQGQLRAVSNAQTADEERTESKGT
Substance-K receptor (Homo sapiens), sequence (P21452 whole entry): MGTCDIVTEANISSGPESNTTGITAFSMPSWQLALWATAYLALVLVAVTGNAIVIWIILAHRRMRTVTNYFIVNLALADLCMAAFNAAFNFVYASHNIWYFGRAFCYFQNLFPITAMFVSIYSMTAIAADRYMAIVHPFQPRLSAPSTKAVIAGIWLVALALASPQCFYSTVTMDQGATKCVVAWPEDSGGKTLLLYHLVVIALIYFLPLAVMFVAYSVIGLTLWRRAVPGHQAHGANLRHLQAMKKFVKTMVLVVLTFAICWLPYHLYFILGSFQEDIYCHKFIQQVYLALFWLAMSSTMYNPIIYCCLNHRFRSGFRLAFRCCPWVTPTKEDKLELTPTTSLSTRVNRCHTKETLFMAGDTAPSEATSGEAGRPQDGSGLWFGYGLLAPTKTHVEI
Prostaglandin G/H synthase 2 (Homo sapiens), sequence (P35354 whole entry): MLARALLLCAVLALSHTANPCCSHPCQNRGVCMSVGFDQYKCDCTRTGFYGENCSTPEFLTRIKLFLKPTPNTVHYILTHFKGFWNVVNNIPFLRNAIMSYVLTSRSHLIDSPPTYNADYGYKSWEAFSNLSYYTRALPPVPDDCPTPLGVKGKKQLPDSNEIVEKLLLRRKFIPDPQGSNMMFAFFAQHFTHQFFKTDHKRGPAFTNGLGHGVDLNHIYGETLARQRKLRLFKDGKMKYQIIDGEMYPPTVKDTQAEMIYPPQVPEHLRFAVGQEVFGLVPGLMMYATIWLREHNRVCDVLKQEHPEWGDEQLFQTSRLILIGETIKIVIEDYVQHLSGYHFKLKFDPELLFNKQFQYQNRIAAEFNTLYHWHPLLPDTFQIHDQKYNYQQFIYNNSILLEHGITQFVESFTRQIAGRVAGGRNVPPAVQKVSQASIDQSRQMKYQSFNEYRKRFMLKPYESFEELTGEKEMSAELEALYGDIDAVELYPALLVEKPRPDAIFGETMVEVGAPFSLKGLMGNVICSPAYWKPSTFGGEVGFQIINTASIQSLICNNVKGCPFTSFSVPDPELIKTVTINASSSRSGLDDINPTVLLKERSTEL
Glutamate receptor 2 (Homo sapiens), sequence (P42262 whole entry): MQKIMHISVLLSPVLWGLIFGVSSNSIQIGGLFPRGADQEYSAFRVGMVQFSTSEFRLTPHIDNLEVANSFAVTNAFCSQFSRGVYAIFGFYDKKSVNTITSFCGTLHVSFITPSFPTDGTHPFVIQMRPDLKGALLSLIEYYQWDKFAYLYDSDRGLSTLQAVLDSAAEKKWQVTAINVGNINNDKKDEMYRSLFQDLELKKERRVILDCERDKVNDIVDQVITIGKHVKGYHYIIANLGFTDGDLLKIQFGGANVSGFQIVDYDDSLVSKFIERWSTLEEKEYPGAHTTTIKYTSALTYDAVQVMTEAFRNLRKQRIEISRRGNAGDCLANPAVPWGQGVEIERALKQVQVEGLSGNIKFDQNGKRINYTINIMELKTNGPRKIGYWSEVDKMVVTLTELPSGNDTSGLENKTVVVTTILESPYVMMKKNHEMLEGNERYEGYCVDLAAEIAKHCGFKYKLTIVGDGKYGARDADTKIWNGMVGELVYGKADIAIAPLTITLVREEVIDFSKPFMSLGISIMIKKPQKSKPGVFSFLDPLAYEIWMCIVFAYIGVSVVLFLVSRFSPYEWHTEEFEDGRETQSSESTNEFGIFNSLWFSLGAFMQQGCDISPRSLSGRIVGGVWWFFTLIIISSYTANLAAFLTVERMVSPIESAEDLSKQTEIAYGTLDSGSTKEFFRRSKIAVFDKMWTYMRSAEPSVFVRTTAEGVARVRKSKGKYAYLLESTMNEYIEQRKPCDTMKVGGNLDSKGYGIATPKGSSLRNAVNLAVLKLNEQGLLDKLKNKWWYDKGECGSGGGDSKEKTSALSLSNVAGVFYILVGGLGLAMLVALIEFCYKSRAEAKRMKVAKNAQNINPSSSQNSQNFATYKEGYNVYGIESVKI
5-hydroxytryptamine receptor 3A (Homo sapiens), sequence (P46098 whole entry): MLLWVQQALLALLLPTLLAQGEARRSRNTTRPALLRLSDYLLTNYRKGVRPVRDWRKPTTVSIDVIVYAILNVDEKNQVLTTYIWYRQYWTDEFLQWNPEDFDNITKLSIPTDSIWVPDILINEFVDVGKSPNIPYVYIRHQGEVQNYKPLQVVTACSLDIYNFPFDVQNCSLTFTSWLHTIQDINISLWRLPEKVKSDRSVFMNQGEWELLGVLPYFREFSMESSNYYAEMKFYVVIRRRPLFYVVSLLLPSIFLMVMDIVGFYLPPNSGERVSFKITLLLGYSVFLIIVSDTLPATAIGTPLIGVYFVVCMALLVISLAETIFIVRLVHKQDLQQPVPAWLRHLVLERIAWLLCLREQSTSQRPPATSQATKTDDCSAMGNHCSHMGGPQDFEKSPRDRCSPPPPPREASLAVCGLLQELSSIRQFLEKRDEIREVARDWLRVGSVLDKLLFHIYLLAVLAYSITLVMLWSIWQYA
Estrogen receptor (Homo sapiens), sequence (P03372 whole entry): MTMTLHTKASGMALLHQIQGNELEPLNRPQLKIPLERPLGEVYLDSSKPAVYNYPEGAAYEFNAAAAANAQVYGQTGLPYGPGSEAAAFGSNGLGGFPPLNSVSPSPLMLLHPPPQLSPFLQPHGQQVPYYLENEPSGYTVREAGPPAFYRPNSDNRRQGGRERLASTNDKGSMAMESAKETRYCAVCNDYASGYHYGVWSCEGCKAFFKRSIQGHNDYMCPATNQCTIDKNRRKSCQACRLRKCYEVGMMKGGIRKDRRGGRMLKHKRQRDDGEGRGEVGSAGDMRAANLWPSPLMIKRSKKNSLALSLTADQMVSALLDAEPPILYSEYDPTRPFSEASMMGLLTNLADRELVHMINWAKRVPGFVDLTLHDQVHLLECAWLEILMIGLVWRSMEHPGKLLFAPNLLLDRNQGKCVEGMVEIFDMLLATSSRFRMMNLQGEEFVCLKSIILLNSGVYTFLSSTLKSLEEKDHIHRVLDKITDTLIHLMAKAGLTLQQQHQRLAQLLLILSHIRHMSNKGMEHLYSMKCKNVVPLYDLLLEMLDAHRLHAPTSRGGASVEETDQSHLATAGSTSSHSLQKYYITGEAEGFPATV
High affinity choline transporter 1 (Homo sapiens), sequence (Q9GZV3 whole entry): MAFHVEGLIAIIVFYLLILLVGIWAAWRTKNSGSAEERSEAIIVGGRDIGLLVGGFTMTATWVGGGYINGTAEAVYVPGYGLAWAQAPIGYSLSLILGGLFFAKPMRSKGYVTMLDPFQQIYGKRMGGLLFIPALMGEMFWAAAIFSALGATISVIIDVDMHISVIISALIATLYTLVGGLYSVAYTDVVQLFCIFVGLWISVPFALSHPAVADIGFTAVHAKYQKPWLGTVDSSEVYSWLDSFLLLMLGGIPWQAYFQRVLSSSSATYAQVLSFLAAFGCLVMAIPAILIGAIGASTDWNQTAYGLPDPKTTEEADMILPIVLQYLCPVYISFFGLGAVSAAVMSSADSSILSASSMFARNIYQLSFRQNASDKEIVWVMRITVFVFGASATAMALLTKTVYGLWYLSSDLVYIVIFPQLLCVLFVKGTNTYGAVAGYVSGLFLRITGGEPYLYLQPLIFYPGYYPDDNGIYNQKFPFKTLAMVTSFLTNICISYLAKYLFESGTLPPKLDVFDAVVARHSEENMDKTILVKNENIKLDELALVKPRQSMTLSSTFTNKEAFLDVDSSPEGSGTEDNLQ
D(2) dopamine receptor (Homo sapiens), sequence (P14416 whole entry): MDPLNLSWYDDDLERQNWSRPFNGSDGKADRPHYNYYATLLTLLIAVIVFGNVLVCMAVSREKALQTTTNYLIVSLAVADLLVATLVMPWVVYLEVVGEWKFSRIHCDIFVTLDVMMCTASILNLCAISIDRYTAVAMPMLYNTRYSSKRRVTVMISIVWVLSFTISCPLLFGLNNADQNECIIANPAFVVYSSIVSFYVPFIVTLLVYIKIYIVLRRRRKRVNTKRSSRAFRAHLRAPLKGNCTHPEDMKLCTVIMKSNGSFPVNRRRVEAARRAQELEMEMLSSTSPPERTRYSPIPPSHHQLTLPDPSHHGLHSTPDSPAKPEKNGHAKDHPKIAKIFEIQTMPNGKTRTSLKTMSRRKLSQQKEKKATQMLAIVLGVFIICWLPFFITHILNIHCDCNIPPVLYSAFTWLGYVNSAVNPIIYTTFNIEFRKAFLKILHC

Q: How did the inhibition [1] turn out when CC(C)CC(=O)N1CCc2nc(-c3ccc(Br)cc3)nc(N(C)Cc3ccccc3)c2C1 [THPP-1-NC] was run?
A: 15.3%

Q: What about the Ki [2] of the same compound?
A: 522 nM (not active)

Q: What about the inhibition [3] of the same compound?
A: -4.38%

Q: Which inhibition [4] does the source give for COCCOc1nc(-c2ccc(Cl)nc2)nc2c1CN(C(=O)c1ncn3ccccc13)CC2 [THPP-1] here?
A: 6%

Q: What about the inhibition [5] of the same compound?
A: 45%

Q: And the inhibition [6]?
A: -10%

Q: And the inhibition [7]?
A: 4%

Q: What about the inhibition [8] of the same compound?
A: 37%

Q: What about the inhibition [9] of the same compound?
A: 4%

Q: What about the inhibition [10] of the same compound?
A: 1%

Q: And the inhibition [11]?
A: 12%

Q: What about the inhibition [12] of the same compound?
A: -1%

Q: What about the inhibition [13] of the same compound?
A: -10%

Q: And the Ki [14]?
A: 44 nM

Q: What about the inhibition [15] of the same compound?
A: 9%

Q: What about the inhibition [16] of the same compound?
A: 9%

Q: And the inhibition [17]?
A: 4%

Q: And the inhibition [18]?
A: 1%

Q: What about the inhibition [19] of the same compound?
A: 3%

Q: What about the inhibition [20] of the same compound?
A: 3%

Q: What about the inhibition [21] of the same compound?
A: 8%

Q: What about the inhibition [22] of the same compound?
A: -3%

Q: And the inhibition [23]?
A: 18%

Q: And the inhibition [24]?
A: 17%
